In article PMC5396026 (Chemical Research in Toxicology, 2016):

Each compound was assayed against T1, AR (Homo sapiens, UniProt P10275) (assay: not given). Details: AC50 at 10 nM vs 0.5 nM R1881, 95% confidence intervals.
T1 sequence (P10275 1-920): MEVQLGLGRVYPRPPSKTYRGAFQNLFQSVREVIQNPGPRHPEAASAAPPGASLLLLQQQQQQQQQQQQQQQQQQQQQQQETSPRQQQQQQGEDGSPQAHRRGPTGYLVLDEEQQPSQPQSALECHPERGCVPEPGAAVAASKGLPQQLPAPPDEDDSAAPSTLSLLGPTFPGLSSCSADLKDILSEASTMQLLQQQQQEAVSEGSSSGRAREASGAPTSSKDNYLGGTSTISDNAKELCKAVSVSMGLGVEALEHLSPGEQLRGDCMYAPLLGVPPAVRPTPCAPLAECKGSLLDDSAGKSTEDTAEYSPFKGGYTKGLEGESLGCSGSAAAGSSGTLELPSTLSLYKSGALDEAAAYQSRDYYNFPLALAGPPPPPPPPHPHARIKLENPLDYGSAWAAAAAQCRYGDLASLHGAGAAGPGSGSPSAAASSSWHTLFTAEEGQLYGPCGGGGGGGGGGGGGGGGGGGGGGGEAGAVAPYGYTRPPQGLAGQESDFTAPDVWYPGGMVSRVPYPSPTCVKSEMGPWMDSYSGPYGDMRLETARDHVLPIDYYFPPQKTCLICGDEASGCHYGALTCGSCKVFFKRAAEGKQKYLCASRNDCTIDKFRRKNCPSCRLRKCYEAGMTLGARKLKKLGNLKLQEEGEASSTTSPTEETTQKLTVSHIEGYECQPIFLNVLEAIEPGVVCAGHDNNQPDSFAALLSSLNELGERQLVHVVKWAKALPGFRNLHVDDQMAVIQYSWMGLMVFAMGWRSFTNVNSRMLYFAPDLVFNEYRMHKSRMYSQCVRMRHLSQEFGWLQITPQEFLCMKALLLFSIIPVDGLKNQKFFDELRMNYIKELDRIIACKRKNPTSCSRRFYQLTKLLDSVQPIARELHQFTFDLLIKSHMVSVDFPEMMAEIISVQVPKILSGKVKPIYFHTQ
Format: cell-based

| Structure (SMILES) | potency shift in antagonist confirmation assay |
| --- | --- |
| CCN=C1C=CC(=C(c2ccc(N(CC)CC)cc2)c2ccc(N(CC)CC)cc2)c2ccccc21.Cl [basic blue 7] | flagged for a lack of a potency shift |
| CC[C@H](c1ccc(O)cc1)[C@@H](CC)c1ccc(O)cc1 [meso-hexestrol] | shift in the correct direction but with overlapping confidence intervals |
| CC/N=c1\cc2oc3cc(NCC)c(C)cc3c(-c3ccccc3C(=O)OCC)c-2cc1C [rhodamine 6G] | flagged for a lack of a potency shift |
| C[C@H]1CCCC(=O)CCC/C=C/c2cc(O)cc(O)c2C(=O)O1 [zearalenone] | active in both screens and exhibited a potency shift in the expected direction |

Each compound was assayed on AR pathway (assay: not given). Details: not given.

| Structure (SMILES) | AR pathway model AUC, Agonist (R1) |
| --- | --- |
| C[C@]12CC[C@@H]3c4ccc(O)cc4CC[C@H]3[C@@H]1CC[C@H]2O [17a-estradiol] | 0.67 |
| CC/C(=C(\c1ccccc1)c1ccc(OCCN(C)C)cc1)c1ccccc1 [tamoxifen] | 0.0335 |

Same assay, conditions: agonist reference chemicals

| Structure (SMILES) | AR pathway model agonist prediction against reference classification |
| --- | --- |
| C[C@]12CC[C@@H]3c4ccc(O)cc4CC[C@H]3[C@@H]1CC[C@H]2O [17a-estradiol] | false positive |

Same assay, conditions: antagonist reference chemicals

| Structure (SMILES) | AR pathway model antagonist prediction against reference classification |
| --- | --- |
| C[C@H]1CCCC(=O)CCC/C=C/c2cc(O)cc(O)c2C(=O)O1 [zearalenone] | false negative |

Same assay, conditions: maximum of agonist or antagonist AUC

| Structure (SMILES) | AR pathway model call |
| --- | --- |
| Oc1ccccc1-c1ccccc1 [2-phenylphenol] | negative (negative if the maximum was <0.001) |
| CNC(=O)Oc1cccc2ccccc12 [carbaryl] | negative (negative if the maximum was <0.001) |
| CCOP(=S)(OCC)Oc1cc(C)nc(C(C)C)n1 [diazinon] | negative (negative if the maximum was <0.001) |
| N#Cc1c(Cl)cccc1Cl [dichlobenil] | negative (negative if the maximum was <0.001) |
| CCc1cccc(C)c1N(C(=O)CCl)C(C)COC (stereo not drawn) [metolachlor] | negative (negative if the maximum was <0.001) |
| CCCCC(C#N)(Cn1cncn1)c1ccc(Cl)cc1 (stereo not drawn) [myclobutanil] | negative (negative if the maximum was <0.001) |
| COP(=S)(OC)SCN1C(=O)c2ccccc2C1=O [phosmet] | negative (negative if the maximum was <0.001) |

Each compound was assayed on cytotoxicity (assay: not given). Details: distance of AR assay logAC50 from median cytotoxicity logAC50; high = >3.
Format: cell-based

| Structure (SMILES) | average Z-score |
| --- | --- |
| O=c1cc(-c2ccc(O)cc2)oc2cc(O)cc(O)c12 [apigenin] | high |
| CC(C)(O)C(=O)Nc1ccc([N+](=O)[O-])c(C(F)(F)F)c1 [hydroxyflutamide] | high |
| CON(C)C(=O)Nc1ccc(Cl)c(Cl)c1 [linuron] | high |
| CC1(C)NC(=O)N(c2ccc([N+](=O)[O-])c(C(F)(F)F)c2)C1=O [nilutamide] | high |
| CC(=O)S[C@@H]1CC2=CC(=O)CC[C@]2(C)[C@H]2CC[C@@]3(C)[C@@H](CC[C@@]34CCC(=O)O4)[C@H]12 [spironolactone] | high |
| C=CC1(C)OC(=O)N(c2cc(Cl)cc(Cl)c2)C1=O (stereo not drawn) [vinclozolin] | high |

The compounds below were run against T2, AR (Rattus norvegicus, UniProt P15207) (assay: Literature review: AR transactivation assays, agonist mode). Details: reference classification from curated literature TA data (mean AC50).
T2 sequence (P15207 1-902): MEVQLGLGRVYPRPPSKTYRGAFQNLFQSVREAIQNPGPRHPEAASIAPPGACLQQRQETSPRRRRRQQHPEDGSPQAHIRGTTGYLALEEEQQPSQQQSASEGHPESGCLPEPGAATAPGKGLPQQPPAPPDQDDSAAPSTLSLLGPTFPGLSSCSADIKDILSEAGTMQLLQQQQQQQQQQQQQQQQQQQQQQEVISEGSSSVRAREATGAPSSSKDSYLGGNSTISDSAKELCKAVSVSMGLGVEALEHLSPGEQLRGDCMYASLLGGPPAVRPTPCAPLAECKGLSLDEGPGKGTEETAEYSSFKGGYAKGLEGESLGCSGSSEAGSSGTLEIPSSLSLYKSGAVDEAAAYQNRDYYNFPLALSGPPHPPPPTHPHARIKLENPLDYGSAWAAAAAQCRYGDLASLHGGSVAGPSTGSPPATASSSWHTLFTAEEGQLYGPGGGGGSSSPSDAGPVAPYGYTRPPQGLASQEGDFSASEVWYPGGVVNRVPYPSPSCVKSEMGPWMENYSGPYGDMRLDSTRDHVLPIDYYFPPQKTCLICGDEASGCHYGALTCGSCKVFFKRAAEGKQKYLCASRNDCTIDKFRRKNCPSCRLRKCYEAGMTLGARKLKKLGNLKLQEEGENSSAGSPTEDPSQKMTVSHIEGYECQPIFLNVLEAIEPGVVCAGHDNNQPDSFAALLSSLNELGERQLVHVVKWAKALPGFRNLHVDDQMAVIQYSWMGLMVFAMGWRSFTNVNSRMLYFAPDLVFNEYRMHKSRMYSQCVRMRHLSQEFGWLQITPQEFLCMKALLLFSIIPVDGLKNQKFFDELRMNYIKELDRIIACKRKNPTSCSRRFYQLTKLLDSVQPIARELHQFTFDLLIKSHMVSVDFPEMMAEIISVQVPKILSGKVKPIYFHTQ

| Structure (SMILES) | agonist potency category |
| --- | --- |
| C[C@]12C=CC3=C4CCC(=O)C=C4CC[C@H]3[C@@H]1CC[C@@H]2O [17b-trenbolone] | strong (Strong: mean AC50 ≤ 0.1 μM) |
| C[C@]12CC[C@@H]3c4ccc(O)cc4C[C@@H](CCCCCCCCC[S+]([O-])CCCC(F)(F)C(F)(F)F)[C@H]3[C@@H]1CC[C@@H]2O (stereo partly drawn) [ICI 182,780] | negative |
| CCCCNC(=O)n1c(NC(=O)OC)nc2ccccc21 [benomyl] | negative |
| COC(=O)Nc1nc2ccccc2[nH]1 [carbendazim] | negative |
| CC1(C)[C@H](C(=O)O[C@H](C#N)c2cccc(Oc3ccccc3)c2)[C@@H]1C=C(Br)Br [deltamethrin] | negative |
| C[C@]1(O)CC[C@H]2[C@@H]3CCC4=CC(=O)CCC4=C3C=C[C@@]21C [methyltrienolone (R1881), methyltrienolone] | strong (Strong: mean AC50 ≤ 0.1 μM) |
| CC1(C)C(C=C(Cl)Cl)C1C(=O)OCc1cccc(Oc2ccccc2)c1 (stereo not drawn) [permethrin] | negative |
| Oc1ccc(/C=C/c2cc(O)cc(O)c2)cc1 [resveratrol] | negative |
| CC(C)=CC1C(C(=O)OCN2C(=O)C3=C(CCCC3)C2=O)C1(C)C (stereo not drawn) [tetramethrin] | negative |
